Data taken from patent publication EP0491041A1, “ANTIVIRAL DRUG” (NIPPON SHINYAKU COMPANY, LIMITED, priority 1989, dated 1991).
Values after ≈ are worked out from the molar mass of the structure shown.

test system: virus; assay: Antiviral action test: screening by inhibition of cell degeneration effect (CPE) in virus-infected HeLa cells; format: cell-based; conditions: amount of added drug whereby the CPE became 50%, M.O.I = 0.002, culture for three days
Method: HeLa cells were subjected to subcultured by monolayer culture (Eagle's MEM-10% CS) and infected as M.O.I. (multiplicity of infection) = 0.01.
On the first day, HeLa cells were spread in a 75 cm³ flask and cultured on a one-day growth medium (Eagle's MEM-10% CS). On the second day, old medium was removed after confirming the formation of cell sheet, then M.O.I was made 0.01 PFU/cell and 0.5 ml of virus solution was added. The original virus solution was diluted with PBS-3% FCS solution. Operation of the virus inoculation was conducted by tilting for 1 hour at room temperature. After virus was inoculated on the cells, the virus-inoculated solution was removed, washed twice with 10 ml PBS and the residual virus solution was removed. Then 15 ml of maintenance medium (Eagle's MEM-1% CS) was added and cultured at 37°C for 2 days. The cells were observed from time to time and the culture was continued until cell fusion and cell rounding were confirmed. After the culture, medium was recovered which was used as a virus solution and was stored at -20°C until actual use.
The 78 cm³ flask containing HeLa cells which were subjected to a monolayer maintenance subculture was taken out, the old medium was discarded, 2-3 ml of 0.25% trypsine (Difco = 1:250)-0.02% EDTA/PBS(-) solution was added, tilted for a few seconds, the trypsine solution was removed and warmed at 37°C for 5 minutes. Then fresh medium was added, pipetted with a Komagome pipette and the cells were homogeneously dispersed.
Cells were counted using a cytometer, then fresh medium was added, diluted to make the cell concentration 5 x 10⁵ cells/ml, 2 ml of that was added to a laboratory dish of 35 mm diameter and cultured in a CO₂-incubator at 37°C for one day to prepare cell sheet.
The virus solution was diluted by a diluting solution to make diluted solutions of ten-times difference or step. The laboratory dish wherein HeLa cells were cultured on the previous day was taken out from the incubator, old medium was discarded and the cells were washed with each 2 ml of PBS twice. Properly diluted virus solution (0.2 ml) was added to each laboratory dish, subjected to a tilting at room temperature for 60 minutes immediately and virus was inoculated. Then the virus solution was removed, each 2 ml of 0.5% methylcellulose/Eagle's MEM-1% CS was added and cultured in a CO₂ incubator for 4 days.
The cultured laboratory dish was taken out from the CO₂-incubator and methylcellulose medium was removed. Then cells were washed with 2 ml of PDS, 2 ml of methanol was added, allowed to stand for 10 minutes and cells were immobilized and, at the same time, virus was sterilized. Hematoxylin dyeing solution (2 ml) was added to the laboratory dish which was immobilized with methanol, allowed to stand for about 10 minutes, washed with water and air-dried at room temperature. Since the cells destructed with virus were not dyed, plaque area was noted as a void and the plaque numbers were counted whereby virus value (PFU/ml) (Plaque forming units/ml) was measured.
HeLa cells during the subculture were dispersed with trypsine liquid-EDTA solution, 5 x 10⁵ cells/pore were embedded on a plate having 24 pores and cultured overnight at 37°C in a CO₂-incubator to prepare cell sheet.
As mentioned above, old medium was discarded, the cells were washed with PBS, the virus solution was diluted to make M.O.I = 0.002, 0.1 ml of it was added to each pore, subjected to a tilting at room temperature for 60 minutes and virus was inoculated to the cell.
Virus solution was removed from the cells after inoculation of virus, the cells were washed with 2 ml of PBS, each 1 ml of maintenance medium was added to each pore, then each 10 µl of the drug was added and the cells were cultured in a CO₂-incubator. Culture was conducted for three days.
The cells on the plate were observed under an invert microscope. Cell degeneration effect (CPE) was observed as cell fusion and making the cells round. […]

Compound	EC50 (50% CPE inhibition)
CCN1C[C@H](O)[C@@H](O)[C@H](O)[C@H]1CO [B, N-ethylmoranoline, reference compound]	>100 µg/mL
Cc1ccc(S(=O)(=O)O)cc1.OC[C@@H]1[C@@H](O)[C@H](O)[C@@H](O)CN1CCCC=Cc1ccccc1 [Compound No. 89, N-(5-Phenyl-4-pentenyl)moranoline tosylate]	10 µg/mL
OC[C@@H]1[C@@H](O)[C@H](O)[C@@H](O)CN1CCCOc1ccc(Cl)cc1 [Compound No. 93, N-[3-(4-Chlorophenoxy)propyl]moranoline]	30 µg/mL (≈ 90.4 µM)
O.OC[C@@H]1[C@@H](O)[C@H](O)[C@@H](O)CN1CC=C(c1ccccc1)c1ccc(Cl)cc1 [Compound No. 99, N-(gamma-Phenyl-4-chlorocinnamyl)moranoline monohydrate]	30 µg/mL
OC[C@@H]1[C@@H](O)[C@H](O)[C@@H](O)CN1CC=C(c1ccccc1)c1ccc(F)cc1 [Compound No. 100, N-(gamma-Phenyl-4-fluorocinnamyl)moranoline]	10 µg/mL (≈ 26.8 µM)
CC(=CCN1C[C@H](O)[C@@H](O)[C@H](O)[C@H]1CO)c1ccc(Br)cc1 [Compound No. 101, N-(gamma-Methyl-4-bromocinnamyl)moranoline]	30 µg/mL (≈ 80.6 µM)
CC(=CCN1C[C@H](O)[C@@H](O)[C@H](O)[C@H]1CO)c1ccc(Cl)c(Cl)c1 [Compound No. 102, N-(gamma-Methyl-3,4-dichlorocinnamyl)moranoline]	10 µg/mL (≈ 27.6 µM)
COc1ccc(C(C)=CCN2C[C@H](O)[C@@H](O)[C@H](O)[C@H]2CO)cc1 [Compound No. 103, N-(magga-Methyl-4-methoxycinnamyl)moranoline]	30 µg/mL (≈ 92.8 µM)
COc1ccc(C(=CCN2C[C@H](O)[C@@H](O)[C@H](O)[C@H]2CO)c2ccccc2)cc1 [Compound No. 105, N-(gamma-Phenyl-4-methoxycinnamyl)moranoline]	100 µg/mL (≈ 259 µM)
C=C(C)C1CC=C(CN2C[C@H](O)[C@@H](O)[C@H](O)[C@H]2CO)CC1.Cc1ccc(S(=O)(=O)O)cc1 (some centres unmarked) [Compound No. 106, N-[(4-Isopropenyl-1-cyclohexenyl)methyl]moranoline tosylate]	30 µg/mL
CC(=CCCN1C[C@H](O)[C@@H](O)[C@H](O)[C@H]1CO)c1cccc(F)c1 [Compound No. 107, N-[4-(3-Fluorophenyl)-3-pentenyl]moranoline]	30 µg/mL (≈ 92.2 µM)
CC(=CCCN1C[C@H](O)[C@@H](O)[C@H](O)[C@H]1CO)c1ccc(F)cc1 [Compound No. 108, N-[4-(4-Fluorophenyl)-3-pentenyl]moranoline]	30 µg/mL (≈ 92.2 µM)
CC(=CCCN1C[C@H](O)[C@@H](O)[C@H](O)[C@H]1CO)c1ccccc1C [Compound No. 109, N-[4-(2-Methylphenyl)-3-pentenyl]moranoline]	30 µg/mL (≈ 93.3 µM)
CC(=CCCN1C[C@H](O)[C@@H](O)[C@H](O)[C@H]1CO)c1ccc(Cl)cc1 [Compound No. 110, N-[4-(4-Chlorophenyl)-3-pentenyl]moranoline]	10 µg/mL (≈ 29.3 µM)
CC(=CCCN1C[C@H](O)[C@@H](O)[C@H](O)[C@H]1CO)c1cccc(Cl)c1 [Compound No. 111, N-[4-(3-Chlorophenyl)-3-pentenyl]moranoline]	30 µg/mL (≈ 87.8 µM)
CC(=CCCN1C[C@H](O)[C@@H](O)[C@H](O)[C@H]1CO)c1ccccc1Cl [Compound No. 112, N-[4-(2-Chlorophenyl)-3-pentenyl]moranoline]	30 µg/mL (≈ 87.8 µM)

Compound	EC50 (50% CPE inhibition)
CC(=CCCN1C[C@H](O)[C@@H](O)[C@H](O)[C@H]1CO)c1cccc(C(F)(F)F)c1 [Compound No. 113, N-[4-(3-Trifluoromethylphenyl)-3-pentenyl]moranoline]	30 µg/mL (≈ 79.9 µM)
CC(=CCCN1C[C@H](O)[C@@H](O)[C@H](O)[C@H]1CO)c1ccc(N(C)C)cc1 [Compound No. 114, N-[4-(4-Dimethylaminophenyl)-3-pentenyl]moranoline]	30 µg/mL (≈ 85.6 µM)
COc1ccccc1C(C)=CCCN1C[C@H](O)[C@@H](O)[C@H](O)[C@H]1CO [Compound No. 116, N-[4-(2-Methoxyphenyl)-3-pentenyl]moranoline]	30 µg/mL (≈ 88.9 µM)
CCOc1ccc(C(C)=CCCN2C[C@H](O)[C@@H](O)[C@H](O)[C@H]2CO)cc1 [Compound No. 118, N-[4-(4-Ethoxyphenyl)-3-pentenyl]moranoline]	30 µg/mL (≈ 85.4 µM)
CC(=CCCN1C[C@H](O)[C@@H](O)[C@H](O)[C@H]1CO)c1cc(C(C)C)ccc1C [Compound No. 119, N-[4-(2-Methyl-5-isopropylphenyl)-3-pentenyl]moranoline]	3 µg/mL (≈ 8.25 µM)
OC[C@@H]1[C@@H](O)[C@H](O)[C@@H](O)C[N+]1(CC=Cc1ccccc1Cl)CC=Cc1ccccc1Cl.[Cl-] (some centres unmarked) [Compound No. 123, N,N-Bis(2-chlorocinnamyl)moranoline ammonium chloride]	3 µg/mL
Cc1ccc(C=CCCN2CC(O)C(O)C(O)C2CO)cc1F (centres unmarked) [Compound No. 133, 4-[4-(3-Fluoro-4-methylphenyl)-3-butenyl]moranoline]	30 µg/mL (≈ 92.2 µM)
COc1ccc(C=CCCCN2C[C@H](O)[C@@H](O)[C@H](O)[C@H]2CO)cc1Cl [Compound No. 148, N-[5-(3-Chloro-4-methoxyphenyl)-4-pentenyl]moranoline]	30 µg/mL (≈ 80.7 µM)
Cc1ccc(CCCCN2C[C@H](O)[C@@H](O)[C@H](O)[C@H]2CO)cc1F [Compound No. 150, N-[4-(3-Fluoro-4-methylphenyl)butyl]moranoline]	30 µg/mL (≈ 91.6 µM)
COc1ccc(C=CCCCN2C[C@H](O)[C@@H](O)[C@H](O)[C@H]2CO)c(C)c1 [Compound No. 151, N-[5-(4-Methoxy-2-methylphenyl)-4-pentenyl]moranoline]	30 µg/mL (≈ 85.4 µM)
COCCOc1cccc(C(C)=CCN2C[C@H](O)[C@@H](O)[C@H](O)[C@H]2CO)c1 [Compound No. 157, N-[3-(3-Methoxyethoxyphenyl)-2-butenyl]moranoline]	100 µg/mL (≈ 272 µM)
CCOc1cccc(C(C)=CCN2C[C@H](O)[C@@H](O)[C@H](O)[C@H]2CO)c1 [Compound No. 159, N-(gamma-Methyl-3-ethoxycinnamyl)moranoline]	30 µg/mL (≈ 88.9 µM)
CCOc1ccc(C(C)=CCN2C[C@H](O)[C@@H](O)[C@H](O)[C@H]2CO)cc1 [Compound No. 160, N-[3-(4-Ethoxyphenyl)-2-butenyl]moranoline]	10 µg/mL (≈ 29.6 µM)
CCCCCCCCCCCCCCCCCC(=O)N1C[C@H](O)[C@@H](O)[C@H](O)[C@H]1CO [Compound No. 171, N-Stearoylmoranoline]	30 µg/mL (≈ 69.8 µM)
CCCCCCCCCCCCCC(=O)N1C[C@H](O)[C@@H](O)[C@H](O)[C@H]1CO [Compound No. 174, N-Myristoylmoranoline]	10 µg/mL (≈ 26.8 µM)

test system: not listed separately; assay: Acute toxicity test in mice; format: in vivo; conditions: Intraperitoneal Administration; male mice, ddY strain; observation for one week
Method: Four male mice (ddY strain; six weeks age) were used for each drug tested.
In the intraperitoneal administration, each drug was suspended in 0.5% CMC-physiological saline solution and 0.1 ml (per 10 g body weight of mouse) of the suspension was intraperitoneally given to mouse. In the case of oral administration, each drug was suspended in 0.5% CMC-physiological saline solution and 0.2 ml (per 10 g body weight of mouse) of the suspension was given orally. Observation was started soon after administration and, after observation for one week, the mice were killed by chloroform and subjected to autopsied. LD₅₀ of each drug tested was given in the following tables wherefrom it is clear that the compounds of the present invention are safe.

Compound	L D ₅₀
COc1ccc(C(C)=CCN2C[C@H](O)[C@@H](O)[C@H](O)[C@H]2CO)cc1 [Compound No. 103, N-(magga-Methyl-4-methoxycinnamyl)moranoline]	> 300 mg/kg
OC[C@@H]1[C@@H](O)[C@H](O)[C@@H](O)CN1CCCCc1ccc(Oc2ccccc2)cc1 [Compound No. 205, N-[4-(4-Phenoxyphenyl)butyl]moranoline]	> 300 mg/kg

same assay, conditions: Oral Administration; male mice, ddY strain; observation for one week

Compound	L D ₅₀
COc1ccc(C(C)=CCN2C[C@H](O)[C@@H](O)[C@H](O)[C@H]2CO)cc1 [Compound No. 103, N-(magga-Methyl-4-methoxycinnamyl)moranoline]	> 5,000 mg/kg
OC[C@@H]1[C@@H](O)[C@H](O)[C@@H](O)CN1CCCCc1ccc(Oc2ccccc2)cc1 [Compound No. 205, N-[4-(4-Phenoxyphenyl)butyl]moranoline]	> 5,000 mg/kg
